Read-outs that look alike come from different tables or passages of the source.
Assays:
[1] = test system: NIH-3T3 (mouse embryonic fibroblasts) cells; assay: MTT assay, NIH-3T3 normal cells; assay type: cell-based; details: 48 h of exposure, mean ± SD
Procedure: (§1) HT-29 (colon cancer), HeLa (cervical cancer), and NIH-3T3 (mouse embryonic fibroblasts) cells were maintained in DMEM supplemented with 10% FBS, penicillin–streptomycin solution in a humidified (95% humidity) CO2 incubator (5% CO2). Thereafter, cells were harvested from the logarithmic phase and seeded into a 96-well plate at a concentration of 8 × 10^4 cells per well. After overnight seeding, cells were treated with different concentrations (2.5, 5, 10, 20, and 50 μM) of the tested ligands and vanadium complexes (H2L^1–4 and 1–4) for 48 h. The compounds’ stock solutions were prepared in DMSO. DMEM was used to prepare the final working concentration of the compounds, so that the final amount of DMSO is less than 2%. The effect of the complexes on the viability of the cells was evaluated through MTT dye reduction assay by measuring the optical density at 595 nm.[93] DMSO alone, used to dissolve the complexes, was also employed for the control group treatment.

[2] = test system: HT-29 (colon cancer) cells; assay: MTT assay, HT-29 cells; assay type: cell-based; details: for IC50: 48 h of exposure, mean ± SD; for selectivity index (SI), HT-29: NIH-3T3 vs HT-29, 48 h
Procedure: as §1

[3] = test system: HeLa (cervical cancer) cells; assay: MTT assay, HeLa cells; assay type: cell-based; details: for IC50: 48 h of exposure, mean ± SD; for selectivity index (SI), HeLa: NIH-3T3 vs HeLa, 48 h
Procedure: as §1

[4] = test system: HeLa (cervical cancer) cells; set-up: method as in PMID 36598160, doi:10.1002/aoc.6082; details: identical experimental conditions; cited from earlier work
[5] = test system: HT-29 (colon cancer) cells; set-up: method as in PMID 36598160, doi:10.1002/aoc.6082; details: identical experimental conditions; cited from earlier work
HT-29 cells = assay: Annexin V-FITC/PI apoptosis assay by flow cytometry; assay type: cell-based; details: 48 h, control 9%
Procedure: The apoptotic population induced by complexes 1 and 2 in HT-29 cells was evaluated using Annexin V-FITC Apoptosis Detection Kit (Abgenex) by a flow cytometer (BD Accuri C6 flow cytometer; BectoneDickinson).[125] HT-29 cells (3 × 10^5 cells/well) were cultured in a 6-well plate for 24 h. After the cells were adhered, different concentrations (5 and 10 μM) of the tested complexes were treated and incubated for further 48 h. Subsequently, the cells were collected by trypsinization and then suspended in 1X binding buffer. Finally, the suspension was stained with 5 μL of Annexin V and PI at room temperature and incubated for 15 min in the dark. Then, the samples were immediately analyzed under a BD Accuri C6 flow cytometer.

Solubility observations = assay type: physicochemical
From the text: The non-oxido vanadium(IV) complexes (1–4) were synthesized by the reaction of tridentate dibasic ONS donor dithiocarbazates H2L^1–4 with [V^IVO(acac)2] in a 2:1 molar ratio in CH3CN medium (Scheme 1). […] They are soluble in polar aprotic solvents like DMSO, DMF, DCM, THF, and CH3CN and are partially soluble in aqueous media. The solid-state characterization of all compounds was done through elemental analysis, FTIR, and also with single-crystal X-ray diffraction studies of 1–3, while the solution phase characterization was carried out through UV–vis, ESI-MS spectrometry, and EPR spectroscopy. Details of all the characterizations are described in the following sections.
(§2) EPR spectra were recorded 24 h after the dissolution of the most soluble compound, [V^IV(L^1)2] (1), in DMSO and in an aqueous solution in phosphate buffer at pH 7.4 (Figure 8). […] The spectrum in DMSO is very similar to that in CH2Cl2 (cfr. traces in Figures 6 and 8), with the coexistence of fac (1a) and mer (1b) isomers.

[6] = Solution stability (ESI-MS, EPR); assay type: physicochemical
Procedure: The stability of all complexes was established in water containing solvents through UV–vis, ESI mass spectrometry, and NMR and EPR spectroscopy.
The aged solutions in MeOH/H2O 90/10 (v/v) were diluted in CH3CN and analyzed by ESI-MS (concentration 50 μM). For all complexes, the most important species remained those detected at t = 0 h, i.e., the non-oxido V^IV complexes [V^IV(L^1–4)2]; the V^V species [V^V(L^1–4)2]^+, derived from the oxidation of the previous one, and [V^VO2(L^1–4)]^− were also detected. At these experimental conditions, the non-oxido V^IV complexes seem to be stable after 24 h with a slight increase in the oxidation process, as indicated by the increment of the relative amount of […] (Figure S14). […] This was considered during the docking studies.
as §2

BSA = target: T1, BSA (Bos taurus, UniProt P02769); assay: Fluorescence quenching titration of BSA with the complexes; assay type: binding, bovine; details: room temperature
T1 construct: purchased Sigma-Aldrich
Procedure: The interaction between complexes 1–4 and BSA was studied using fluorescence quenching spectroscopy on a PerkinElmer LS 55 instrument. The instrumental response was corrected by means of a correction function provided by the manufacturer. The fluorescence experiments were carried out at room temperature and are steady-state measurements. Electronic absorption spectra were measured on a PerkinElmer Lambda35.
Fatty acid free BSA stock solution was prepared in PBS buffer (10 mM, pH 7.4), and the concentration was determined spectrophotometrically considering the extinction coefficient 44,309 M^–1 cm^–1 at 280 nm.[107] Stock solutions of the complexes (ca. 8 × 10^–4 M) were prepared in DMSO and further diluted (1:10) immediately before running the experiments. […] Fluorescence emission spectra were measured at room temperature with λex = 295 nm between 310 and 500 nm. Fluorescence spectra containing the same amount of complex but no BSA were recorded and subtracted from each corresponding emission spectrum of the mixtures. […] UV–vis spectra were measured for each solution, and the absorbance at excitation and emission wavelengths were used to make corrections for inner filter effects and reabsorption.[108],[109]
The Stern–Volmer equation was used to fit the fluorescence quenching data[109] […]

T1 sequence (P02769 25-607): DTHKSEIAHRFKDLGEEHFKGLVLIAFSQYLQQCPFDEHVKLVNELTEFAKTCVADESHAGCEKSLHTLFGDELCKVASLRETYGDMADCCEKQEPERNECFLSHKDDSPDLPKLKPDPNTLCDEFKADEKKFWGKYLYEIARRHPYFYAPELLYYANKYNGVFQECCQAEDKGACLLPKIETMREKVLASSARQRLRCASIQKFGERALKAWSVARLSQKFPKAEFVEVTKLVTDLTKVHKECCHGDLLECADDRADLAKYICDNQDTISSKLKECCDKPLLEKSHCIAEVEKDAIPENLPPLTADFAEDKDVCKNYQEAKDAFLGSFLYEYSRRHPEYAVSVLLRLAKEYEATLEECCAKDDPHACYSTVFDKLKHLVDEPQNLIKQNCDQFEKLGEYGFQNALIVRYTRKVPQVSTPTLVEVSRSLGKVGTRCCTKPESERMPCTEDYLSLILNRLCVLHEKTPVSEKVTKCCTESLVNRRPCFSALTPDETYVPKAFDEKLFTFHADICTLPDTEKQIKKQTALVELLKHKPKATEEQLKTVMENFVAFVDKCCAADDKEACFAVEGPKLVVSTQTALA

| IC50 ([2]; Homo sapiens, HT-29) | IC50 ([3]; Homo sapiens, HeLa) | solubility in phosphate buffer (Solubility observations; pH 7.4) | IC50 [2] | IC50 [3] | n (equivalent binding sites of BSA) (BSA; PBS pH 7.4) | KBC (binding constant) (BSA; PBS pH 7.4, from double logarithm plot) | SMILES | IC50 ([1]; Mus musculus, NIH3T3) | selectivity index (SI), HT-29 [2] | selectivity index (SI), HeLa [3] | IC50 [4] | IC50 [5] | apoptotic cells (sum of early and late apoptosis) (HT-29 cells; 5 μM) | apoptotic cells (sum of early and late apoptosis) (HT-29 cells; 10 μM) | behaviour in minimum essential medium (MEM, no FBS) (Solubility observations; MEM instead of water) | stability by EPR in DMSO ([6]; DMSO, after 24 h) | stability by EPR in aqueous solution ([6]; phosphate buffer pH 7.4, after 24 h) | IC50 [1] |
| --- | --- | --- | --- | --- | --- | --- | --- | --- | --- | --- | --- | --- | --- | --- | --- | --- | --- | --- |
| 14.7 ± 0.6 µM | 15.7 ± 1.9 µM |  |  |  |  |  | CCN(CC)c1ccc(/C=N/NC(=S)SC)c(O)c1 [H2L^1] | 23.5 ± 0.6 µM | 1.6 | 1.5 |  |  |  |  |  |  |  |  |
|  |  |  |  |  |  |  | N.N.[Cl][Pt][Cl] [cisplatin] |  |  |  | 25.5 ± 0.8 µM | 32.7 ± 0.6 µM |  |  |  |  |  |  |
|  |  | not completely soluble | 7.2 ± 0.6 µM | 9.3 ± 0.2 µM | 0.89 | 2.6 × 10^4 | CCN(CC)c1ccc2c(c1)[O][V]1([O]c3cc(N(CC)CC)ccc3C=NN=C(SC)[S]1)[S]C(SC)=NN=C2 (centres unmarked) [complex 1, [V^IV(L^1)2]] |  | 1.2 | 0.9 |  |  | 15.8% | 48.8% | precipitation was evident from the beginning | the pattern remains substantially unaltered, even though a significant decrease in the spectral intensity is detected | the resonances of [V^IV(L^1)2] are clearly visible | 8.7 ± 1.1 µM |

From paper PMC10367067, “A Series of Non-Oxido V^IV Complexes of Dibasic ONS Donor Ligands: Solution Stability, Chemical Transformations, Protein Interactions, and Antiproliferative Activity” (Inorganic Chemistry, 2023)
